Assay results reported in ChEMBL document CHEMBL3120093 (J Med Chem, 2014).

What was measured:
[1] = Volume of distribution in dog at 1 mg/kg, iv after 24 hrs; format: ADME, organism-based, Canis lupus familiaris; set-up: dose 1 mg/kg, route intravenous; conditions: in vivo
[2] = AUC in dog at 3 mg/kg, po after 24 hrs; format: ADME, organism-based, Canis lupus familiaris; set-up: time < 24 hr, dose 3 mg/kg, route oral; conditions: plasma
[3] = AUC in rat at 5 mg/kg, po after 4 hrs; format: ADME, organism-based; set-up: time < 4 hr, dose 5 mg/kg, route oral; conditions: plasma
[4] = Half life in dog at 1 mg/kg, iv after 24 hrs; format: ADME, organism-based, Canis lupus familiaris; set-up: dose 1 mg/kg, route intravenous; conditions: in vivo
[5] = Plasma concentration in dog at 3 mg/kg, po after 24 hrs; format: ADME, organism-based, Canis lupus familiaris; set-up: dose 3 mg/kg, route oral
[6] = Clearance in rat at 2 mg/kg, iv after 4 hrs; format: ADME, organism-based; set-up: dose 2 mg/kg, route intravenous; conditions: in vivo
Liver microsome [7] = test: Metabolic stability of the compound in human liver microsomes assessed as GSH adduct formation at 10 uM after 30 mins; conditions: 0.5 h
[8] = Half life in rat at 2 mg/kg, iv after 24 hrs; format: ADME, organism-based; set-up: dose 2 mg/kg, route intravenous; conditions: in vivo
[9] = Permeability of the compound at PH 7.4 by PAMPA; format: ADME; conditions: read-out: permeability
[10] = Plasma concentration in rat at 5 mg/kg, po after 4 hrs; format: ADME, organism-based; set-up: dose 5 mg/kg, route oral
Liver microsome [11] = test: Metabolic stability of the compound in human liver microsomes assessed as cyanide adduct formation at 10 uM after 30 mins; format: ADME; conditions: 0.5 h
[12] = Oral bioavailability in dog at 3 mg/kg after 24 hrs; format: ADME, organism-based, Canis lupus familiaris; conditions: plasma
[13] = Clearance in dog at 1 mg/kg, iv after 24 hrs; format: ADME, organism-based, Canis lupus familiaris; set-up: dose 1 mg/kg, route intravenous; conditions: in vivo
Liver microsome [14] = test: Metabolic stability of the compound in human liver microsomes assessed as GSH adduct formation at 10 uM after 30 mins; format: ADME; conditions: 0.5 h
Liver microsome [15] = test: Metabolic stability of the compound in rat liver microsomes assessed as […] formation at 10 uM after 30 mins; format: ADME; conditions: 0.5 h
[16] = Volume of distribution in rat at 2 mg/kg, iv after 24 hrs; format: ADME, organism-based; set-up: dose 2 mg/kg, route intravenous; conditions: in vivo
[17] = Clearance in rat at 2 mg/kg, iv after 24 hrs; format: ADME, organism-based; set-up: dose 2 mg/kg, route intravenous; conditions: in vivo
[18] = Drug uptake in rat liver at 5 mg/kg, po after 4 hrs; format: ADME, organism-based; set-up: dose 5 mg/kg, route oral; conditions: read-out: Drug uptake
[19] = Oral bioavailability in mouse at 20 mg/kg after 24 hrs; format: ADME, organism-based; conditions: plasma
[20] = AUC in rat at 5 mg/kg, po after 24 hrs; format: ADME, organism-based; set-up: time < 24 hr, dose 5 mg/kg, route oral; conditions: plasma
[21] = Half life in mouse at 5 mg/kg, iv after 24 hrs; format: ADME, organism-based; set-up: dose 5 mg/kg, route intravenous; conditions: in vivo
[22] = Clearance in mouse at 5 mg/kg, iv after 24 hrs; format: ADME, organism-based; set-up: dose 5 mg/kg, route intravenous; conditions: in vivo
[23] = Plasma concentration in mouse at 20 mg/kg, po after 24 hrs; format: ADME, organism-based; set-up: dose 20 mg/kg, route oral
[24] = AUC in mouse at 20 mg/kg, po after 24 hrs; format: ADME, organism-based; set-up: time < 24 hr, dose 20 mg/kg, route oral; conditions: plasma
[25] = Permeability from basolateral to apical side of human Caco2 cells; format: ADME, cell-based; conditions: Caco-2, read-out: permeability
[26] = Oral bioavailability in rat at 5 mg/kg after 24 hrs; format: ADME, organism-based; conditions: in vivo
[27] = Drug uptake in rat liver at 5 mg/kg, po after 24 hrs; format: ADME, organism-based; set-up: dose 5 mg/kg, route oral; conditions: read-out: Drug uptake
[28] = Volume of distribution in mouse at 5 mg/kg, iv after 24 hrs; format: ADME, organism-based; set-up: dose 5 mg/kg, route intravenous; conditions: in vivo
[29] = Permeability from apical to basolateral side of human Caco2 cells; format: ADME, cell-based; conditions: Caco-2, read-out: permeability
[30] = Plasma concentration in rat at 5 mg/kg, po after 24 hrs; format: ADME, organism-based; set-up: dose 5 mg/kg, route oral
[31] = Ratio of drug level in liver to plasma in rat at 5 mg/kg, po after 24 hrs; format: ADME, organism-based; set-up: dose 5 mg/kg, route oral
[32] = Drug uptake in mouse liver at 20 mg/kg, po after 24 hrs; format: ADME, organism-based; set-up: dose 20 mg/kg, route oral; conditions: read-out: Drug uptake

Row | Structure (SMILES) | Vd [1] | AUC at 24 h [2] | AUC at 4 h [3] | half-life [4] | concentration at 24 h [5] | half-life [8] | Papp [9] | concentration at 4 h [10] | bioavailability [12] | clearance [13] | Vd [16] | clearance [17] | concentration at 4 h [18] | further results
1 | O=C([C@@H](c1ccccc1)N1CCCCC1)N1CCC[C@H]1c1ncc(-c2ccc(-c3ccc(-c4cnc([C@@H]5CCCN5C(=O)[C@@H](c5ccccc5)N5CCCCC5)[nH]4)cc3)cc2)[nH]1 | 10 L/kg | 0.272 µM·h | 0.047 µM·h | > 12 h | 8.3 nM | 7.7 h | 25.1 ×10⁻⁶ cm/s | 13 nM | 14% | 28 mL/min/kg | 20 L/kg | 63 mL/min/kg | 1200 nM | clearance [6]: 58 mL/min/kg; Stability (Liver microsome [7]): Stable; Stability (Liver microsome [11]): Unstable; Stability (Liver microsome [14]): Stable; Stability (Liver microsome [15]): Unstable
2 | COC(=O)N[C@@H](C(=O)N1CCC[C@H]1c1ncc(-c2ccc(-c3ccc(-c4cnc([C@@H]5CCCN5C(=O)[C@H]5CCCO5)[nH]4)cc3)cc2)[nH]1)c1ccccc1 | 7.5 L/kg | 1.52 µM·h | 0.809 µM·h | > 10 h | 6 nM | 6.9 h | 46.4 ×10⁻⁶ cm/s | 234 nM | 45% | 22 mL/min/kg | 0.3 L/kg | 4.4 mL/min/kg | 2570 nM | bioavailability [19]: 17%; AUC at 24 h [20]: 1.83 µM·h; half-life [21]: 2.9 h; clearance [22]: 5.3 mL/min/kg; concentration at 24 h [23]: 59 nM; AUC at 24 h [24]: 15.1 µM·h; Papp B→A [25]: 10.5 ×10⁻⁶ cm/s; bioavailability [26]: 6.8%; concentration at 24 h [27]: 116 nM; Vd [28]: 1.9 L/kg; Papp A→B [29]: < 1.5 ×10⁻⁶ cm/s; concentration at 24 h [30]: 4.5 nM; Kp at 24 h [31]: 26; concentration at 24 h [32]: 253 nM
